According to patent US20260262643A1, “HERBICIDAL BENZOXAZINES” (FMC CORPORATION, priority 2022, published 2026):

What was measured:
[1] = tested on: blackgrass; experiment: Test A preemergence; format: in vivo, Alopecurus myosuroides
In short: (§1)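 Loam/sand soil; pre-em directed soil spray at planting, post-em spray at 1–2 leaf (2–10 cm). Compound in non-phytotoxic solvent + surfactant. Greenhouse 10 d; visual injury vs untreated, 0 = no effect, 100 = complete control.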

[2] = tested on: corn; experiment: Test A preemergence; format: in vivo, Zea mays
In short: as §1

[3] = tested on: foxtail, giant; experiment: Test A preemergence; format: in vivo, Setaria faberi
In short: as §1

[4] = tested on: goosegrass; experiment: Test A preemergence; format: in vivo, Eleusine indica
In short: as §1

[5] = tested on: kochia; experiment: Test A preemergence; format: in vivo, Bassia scoparia
In short: as §1

[6] = tested on: oat, wild; experiment: Test A preemergence; format: in vivo, Avena fatua
In short: as §1

[7] = tested on: pigweed, palmer; experiment: Test A preemergence; format: in vivo, Amaranthus palmeri
In short: as §1

[8] = tested on: ragweed; experiment: Test A preemergence; format: in vivo, Ambrosia artemisiifolia
In short: as §1

[9] = tested on: ryegrass, Italian; experiment: Test A preemergence; format: in vivo, Lolium multiflorum
In short: as §1

[10] = tested on: soybean; experiment: Test A preemergence; format: in vivo, Glycine max
In short: as §1

[11] = tested on: wheat; experiment: Test A preemergence; format: in vivo, Triticum aestivum
In short: as §1

[12] = tested on: blackgrass; experiment: Test A postemergence; format: in vivo, Alopecurus myosuroides
In short: as §1

[13] = tested on: corn; experiment: Test A postemergence; format: in vivo, Zea mays
In short: as §1

[14] = tested on: foxtail, giant; experiment: Test A postemergence; format: in vivo, Setaria faberi
In short: as §1

[15] = tested on: goosegrass; experiment: Test A postemergence; format: in vivo, Eleusine indica
In short: as §1

[16] = tested on: kochia; experiment: Test A postemergence; format: in vivo, Bassia scoparia
In short: as §1

[17] = tested on: oat, wild; experiment: Test A postemergence; format: in vivo, Avena fatua
In short: as §1

[18] = tested on: pigweed, palmer; experiment: Test A postemergence; format: in vivo, Amaranthus palmeri
In short: as §1

[19] = tested on: ragweed; experiment: Test A postemergence; format: in vivo, Ambrosia artemisiifolia
In short: as §1

[20] = tested on: ryegrass, Italian; experiment: Test A postemergence; format: in vivo, Lolium multiflorum
In short: as §1

[21] = tested on: soybean; experiment: Test A postemergence; format: in vivo, Glycine max
In short: as §1

[22] = tested on: wheat; experiment: Test A postemergence; format: in vivo, Triticum aestivum
In short: as §1

[23] = tested on: galium; experiment: Test A postemergence; format: in vivo, Galium aparine
In short: as §1

[24] = tested on: horseweed; experiment: Test A postemergence; format: in vivo, Erigeron canadensis
In short: as §1

[25] = tested on: barnyardgrass; experiment: Test B flooded paddy test; format: in vivo, Echinochloa crus-galli; settings: 250 g ai/ha, Flood, 13 days, 0 to 100 scale (0 no effect, 100 complete control)
In short: (§2)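 Percent weed or crop control, judged by eye on a 0–100 scale 13 days post-treatment, reflects compound added to a 3 cm flood maintained over 2-leaf plants in the greenhouse. Missing entries are marked with a dash.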

[26] = tested on: ducksalad; experiment: Test B flooded paddy test; format: in vivo, Heteranthera limosa; settings: 250 g ai/ha, Flood, 13 days, 0 to 100 scale (0 no effect, 100 complete control)
In short: as §2

[27] = tested on: rice; experiment: Test B flooded paddy test; format: in vivo, Oryza sativa; settings: 250 g ai/ha, Flood, 13 days, 0 to 100 scale (0 no effect, 100 complete control)
In short: as §2

[28] = tested on: sedge, umbrella; experiment: Test B flooded paddy test; format: in vivo, Cyperus difformis; settings: 250 g ai/ha, Flood, 13 days, 0 to 100 scale (0 no effect, 100 complete control)
In short: as §2

[29] = 125 g ai/ha, visual injury after 10 days, 0 to 100 scale, 0 is no effect, 100 is complete control
[30] = 500 g ai/ha, 0 to 100 scale (0 no effect, 100 complete control), 10 days
[31] = 125 g ai/ha, postemergence, 10 days, visual injury, 0 to 100 scale (0 no effect, 100 complete control)
[32] = 500 g ai/ha, Postemergence, 0 to 100 scale

Question: `CC1CN(C(=O)c2cc(-n3cncn3)ccc2F)c2cccc(Cl)c2O1` (stereo not shown) [Compound 39] was tested. Which “Plant response rating, Blackgrass” value [1, 29] did it give?
Answer: 0

Question: And the “Plant response rating, Blackgrass” value [1, 30]?
Answer: 60

Question: What about the “Plant response rating, Corn” value [2, 29] of the same molecule?
Answer: 0

Question: What about the “Plant response rating, Corn” value [2, 30] of the same molecule?
Answer: 30

Question: And the “Plant response rating, Foxtail, Giant” value [3, 29]?
Answer: 90

Question: What about the “Plant response rating, Foxtail, Giant” value [3, 30] of the same molecule?
Answer: 100

Question: And the “Plant response rating, Goosegrass” value [4, 29]?
Answer: 90

Question: What about the “Plant response rating, Goosegrass” value [4, 30] of the same molecule?
Answer: 100

Question: And the “Plant response rating, Kochia” value [5, 29]?
Answer: 0

Question: And the “Plant response rating, Kochia” value [5, 30]?
Answer: 50

Question: And the “Plant response rating, Oat, Wild” value [6, 29]?
Answer: 0

Question: What about the “Plant response rating, Oat, Wild” value [6, 30] of the same molecule?
Answer: 70

Question: What about the “Plant response rating, Pigweed, Palmer” value [7, 29] of the same molecule?
Answer: 50

Question: And the “Plant response rating, Pigweed, Palmer” value [7, 30]?
Answer: 90

Question: What about the “Plant response rating, Ragweed” value [8, 29] of the same molecule?
Answer: 10

Question: What about the “Plant response rating, Ragweed” value [8, 30] of the same molecule?
Answer: 20

Question: What about the “Plant response rating, Ryegrass, Italian” value [9, 29] of the same molecule?
Answer: 40

Question: What about the “Plant response rating, Ryegrass, Italian” value [9, 30] of the same molecule?
Answer: 100

Question: What about the “Plant response rating, Soybean” value [10, 29] of the same molecule?
Answer: 30

Question: What about the “Plant response rating, Soybean” value [10, 30] of the same molecule?
Answer: 70

Question: What about the “Plant response rating, Wheat” value [11, 29] of the same molecule?
Answer: 0

Question: And the “Plant response rating, Wheat” value [11, 30]?
Answer: 30

Question: What about the “Plant response rating, Blackgrass” value [12, 31] of the same molecule?
Answer: 60

Question: What about the “Plant response rating, Blackgrass” value [12, 32] of the same molecule?
Answer: 60

Question: What about the “Plant response rating, Corn” value [13, 31] of the same molecule?
Answer: 0

Question: And the “Plant response rating, Corn” value [13, 32]?
Answer: 70

Question: And the “Plant response rating, Foxtail, Giant” value [14, 31]?
Answer: 10

Question: And the “Plant response rating, Foxtail, Giant” value [14, 32]?
Answer: 90

Question: What about the “Plant response rating, Goosegrass” value [15, 31] of the same molecule?
Answer: 30

Question: And the “Plant response rating, Goosegrass” value [15, 32]?
Answer: 60

Question: What about the “Plant response rating, Kochia” value [16, 31] of the same molecule?
Answer: 30

Question: What about the “Plant response rating, Kochia” value [16, 32] of the same molecule?
Answer: 60

Question: And the “Plant response rating, Oat, Wild” value [17, 31]?
Answer: 40

Question: What about the “Plant response rating, Oat, Wild” value [17, 32] of the same molecule?
Answer: 90

Question: What about the “Plant response rating, Pigweed, Palmer” value [18, 31] of the same molecule?
Answer: 20

Question: And the “Plant response rating, Pigweed, Palmer” value [18, 32]?
Answer: 40

Question: And the “Plant response rating, Ragweed” value [19, 31]?
Answer: 0

Question: What about the “Plant response rating, Ragweed” value [19, 32] of the same molecule?
Answer: 60

Question: What about the “Plant response rating, Ryegrass, Italian” value [20, 31] of the same molecule?
Answer: 50

Question: And the “Plant response rating, Ryegrass, Italian” value [20, 32]?
Answer: 100

Question: And the “Plant response rating, Soybean” value [21, 31]?
Answer: 100

Question: What about the “Plant response rating, Soybean” value [21, 32] of the same molecule?
Answer: 100

Question: And the “Plant response rating, Wheat” value [22, 31]?
Answer: 10

Question: What about the “Plant response rating, Wheat” value [22, 32] of the same molecule?
Answer: 50

Question: And the “Plant response rating, Galium” value [23, 31]?
Answer: 90

Question: What about the “Plant response rating, Galium” value [23, 32] of the same molecule?
Answer: 100

Question: And the “Plant response rating, Horseweed” value [24, 31]?
Answer: 0

Question: And the “Plant response rating, Horseweed” value [24, 32]?
Answer: 20

Question: What about the “Plant response rating, Barnyardgrass” value [25] of the same molecule?
Answer: 0

Question: What about the “Plant response rating, Ducksalad” value [26] of the same molecule?
Answer: 0

Question: And the “Plant response rating, Rice” value [27]?
Answer: 0

Question: And the “Plant response rating, Sedge, Umbrella” value [28]?
Answer: 0
